# Results as given in patent publication US11390868B2, “Treatment of filaggrin (FLG) related diseases by modulation of FLG expression and activity” (CuRNA, Inc., priority 2009, dated 2022).
# Counter-ions that a name gives are not always drawn. Like-named read-outs stand apart in the source and are kept apart here.
# What was measured:
# [1] = cited from earlier work; for solubility in ethanol / alcohol: anhydrous ethanol or alcohol
# [2] = tested on: FLG Natural Antisense Transcripts in primary keratinocytes; experiment: Real time PCR of FLG Natural Antisense Transcripts after treatment of primary keratinocytes with small compounds; format: cell-based; conditions: small compounds 1 uM, dosed twice, 24 h after second dosing, vs vehicle control (FIG. 5)
# Method: Primary keratinocytes (from Promocell) were grown in a growth media (Keratinocyte Growth Media, Promocell cat #C-2011) at 37° C. with 5% CO2. One day before the experiment the cells were replated at approximately 5×10^4/ml (or about ⅓ dilution from 90% confluency) into 24-well collagen-coated plates (Beckton Dickinson BioCoat plates cat #35 6408) and incubated at 37° C. and 5% CO2 overnight. On the day of the experiment the media in the 24-well plates was changed to 1 ml fresh growth media. Small compounds were diluted in DMSO to the concentration of 1000 uM. On the day of the experiment this solution was diluted 1:100 in fresh growth media. Pure DMSO was diluted in media at the same ratio […] to treat vehicle control samples. To dose one well, […] of the compound or pure DMSO solution was added directly to well of a 24-well plate. The final concentration of compounds was 1 uM. Dosing volume was adjusted if a different concentration of compound was desired. After dosing the plates were incubated overnight at 37° C., 5% CO2. 24 h after addition of small compounds the media was replaced with fresh growth media and the dosing was repeated as described above. 24 h after second dosing RNA was extracted from the cells using SV Total RNA Isolation System from Promega (cat #Z3105) following the manufacturers' instructions. 600 ng of total RNA was added to the reverse transcription reaction performed using High Capacity cDNA kit from Applied Biosystems (cat #4368813) as described in the manufacturer's protocol. The cDNA from this reverse transcription reaction was used to monitor gene expression by real time PCR using BI Taqman Gene Expression Mix (cat #4369510) and primers/probes designed by AB (for example, assay ID #Hs00856927_gl for FLG). The following PCR cycle was used: 50° C. for 2 min, 95° C. for 10 min, 40 cycles of (95° C. for 15 seconds, 60° C. for […]) using StepOne thermal cycler (ABI). […] Fold change in gene expression after treatment with small compounds was calculated based on the difference in 18S-normalized dCt values between treated and mock-transfected samples.
# TNF-alpha = conditions: several case studies and a pilot study; cited from earlier work
# [3] = cited from earlier work
# [4] = cited from earlier work; remark: listed apart in the source
# [5] = tested on: patients with severe head trauma; conditions: peripheral vein injection plus standard procedures; cited from earlier work
compound,measurement,setting,value
"CC(NC(C)(C)C)C(=O)c1cccc(Cl)c1.Cl (racemic) [Bupropion, (±)-1-(3-chlorophenyl)-2-[(1,1-dimethylethyl)amino]-1-propanone hydrochloride]",solubility in water,[1],highly soluble
same,levels of FLG Natural Antisense Transcripts,[2],significantly decreased
same,level of inflammatory mediator TNF-alpha,TNF-alpha,lowers
"CCc1ccc(CCOc2ccc(CC3SC(=O)NC3=O)cc2)nc1 (racemic) [Pioglitazone hydrochloride, [(±)-5-[[4-[2-(5-ethyl-2-pyridinyl)ethoxy]phenyl]methyl]-2,4-]thiazolidinedione monohydrochloride]","solubility in N,N-dimethylformamide","[1]; N,N-dimethylformamide",soluble
same,solubility in acetone,[1],very slightly soluble
same,solubility in acetonitrile,[1]; acetonitrile,very slightly soluble
same,solubility in ethanol / alcohol,[1],slightly soluble
same,solubility in ether,[1]; ether,insoluble
same,solubility in water,[1],practically insoluble
"COC(=O)C1=C(C)NC(C)=C(C(=O)O[C@@H]2CCCN(Cc3ccccc3)C2)[C@@H]1c1cccc([N+](=O)[O-])c1.Cl (relative stereo) [Bendipine, (4R)-rel-1,4-Dihydro-2,6-dimethyl-4-(3-nitrophenyl)-3,5-pyridinedicarboxylic acid 3-methyl 5-[(3R)-1-(phenylmethyl)-3-piperidinyl]ester hydrochloride]",levels of FLG Natural Antisense Transcripts,[2],significantly decreased
"COC(=O)C1=C(C)NC(C)=C(C(=O)OC(C)C)C1c1cccc2nonc12 (stereo not drawn) [Isradipine, 3,5-Pyridinedicarboxylic acid, 4-(4-benzofurazanyl)-1,4-dihydro-2,6-dimethyl-, methyl 1-methylethyl ester]",solubility in acetone,[1],freely soluble
same,solubility in chloroform,[1],freely soluble
same,solubility in ethanol / alcohol,[1],soluble
same,solubility in methylene chloride,[1]; methylene chloride,freely soluble
same,solubility in water,[1]; 37° C.,< 10 µg/mL
same,solubility in water,[1],practically insoluble
"O=C([O-])CCc1nc(-c2ccccc2)c(-c2ccccc2)o1.[K+] [Oxaprozin potassium, 4,5-diphenyl-2-oxazolepropionic acid, potassium salt]",PK in water,[3]; in water,9.7
same,solubility in ethanol / alcohol,[1],slightly soluble
same,solubility in water,[1],very soluble
"CN1C(C(=O)Nc2ccccn2)=C(O)c2ccccc2S1(=O)=O [Piroxicam, 4-hydroxyl-2-methyl-N-2-pyridinyl-2H-1,2,-benzothiazine-3-carboxamide 1,1-dioxide]",pKa of weak basic pyridyl nitrogen,[3]; pyridyl nitrogen,1.8
same,solubility in aqueous solutions,[1]; aqueous solutions,slightly soluble
same,solubility in dilute acid,[1]; dilute acid,sparingly soluble
same,solubility in ethanol / alcohol,[1],slightly soluble
same,solubility in most organic solvents,[1]; most organic solvents,sparingly soluble
same,solubility in water,[1],sparingly soluble
"CC1(C)O[C@@H]2[C@@H](CO[C@@]3(COS(N)(=O)=O)OC(C)(C)O[C@@H]23)O1 [Topiramate, 2,3:4,5-Di-O-isopropylidene-β-D-fructopyranose sulfamate]",solubility in acetone,[1],freely soluble
same,solubility in alkaline solutions,"[1]; alkaline solutions containing sodium hydroxide or sodium phosphate, pH of 9 to 10",most soluble
same,solubility in chloroform,[1],freely soluble
same,solubility in dimethyl sulfoxide,[1]; dimethyl sulfoxide,freely soluble
same,solubility in ethanol / alcohol,[1],freely soluble
same,levels of FLG Natural Antisense Transcripts,[2],significantly decreased
same,pH of saturated solution,[4],6.3
"COCCOC(=O)C1=C(C)NC(C)=C(C(=O)OC(C)C)C1c1cccc([N+](=O)[O-])c1 (stereo not drawn) [nimodipine, isopropyl 2-methoxyethyl 1,4-dihydro-2,6-dimethyl-4-(m-nitrophenyl)-3,5-pyridinedicarboxylate]",Glasgow outcome score values,[5],higher
same,cerebral metabolism,[5],improved
same,cerebral perfusion pressure,[5],significantly higher
same,intracranial pressure,[5],lower
same,jugular glucose,[5],lower
same,jugular lactate,[5],lower
same,jugular venous oxygen saturation,[5],significantly higher
